Data as given in patent publication US20230416225A1, “DIAMINOPYRIMIDINE CARBOXAMIDE INHIBITORS OF HPK1” (MERCK SHARP & DOHME LLC, priority 2020, published 2023).

These compounds were tested against T1, Human HPK1, catalytic domain (Homo sapiens, UniProt Q92918) (assay: HPK1-SLP76 TR-FRET assay). Conditions: 75 pM HPK1, 10 uM ATP, 10 nM SLP76, 30 min compound pre-incubation.
T1 construct: purchased Carna
T1 sequence (Q92918 1-346): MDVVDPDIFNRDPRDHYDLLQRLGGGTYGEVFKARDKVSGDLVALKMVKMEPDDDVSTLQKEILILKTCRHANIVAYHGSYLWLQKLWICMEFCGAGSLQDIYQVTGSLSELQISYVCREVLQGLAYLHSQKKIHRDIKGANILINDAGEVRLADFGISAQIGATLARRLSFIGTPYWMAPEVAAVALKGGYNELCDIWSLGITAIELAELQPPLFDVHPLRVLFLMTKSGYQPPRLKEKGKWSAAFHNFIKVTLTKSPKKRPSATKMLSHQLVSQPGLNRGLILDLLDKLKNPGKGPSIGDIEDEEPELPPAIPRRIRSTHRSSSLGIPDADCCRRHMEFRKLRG
Type: biochemical
Work on `COc1cc2c(cc1Nc1ncc(C(N)=O)c(Nc3cn(C)nc3C3CC3)n1)CN(C)CC2` [Example 7-81, 4-((3-cyclopropyl-1-methyl-1H-pyrazol-4-yl)amino)-2-((6-methoxy-2-methyl-1,2,3,4-tetrahydroisoquinolin-7-yl)amino)pyrimidine-5-carboxamide] yielded an IC50 of 3.08 nM.
Work on `COc1cc2c(cc1Nc1ncc(C(N)=O)c(Nc3cc(C4CC4)nn3C)n1)CN(C)CC2` [Example 7-82, 4-((3-cyclopropyl-1-methyl-1H-pyrazol-5-yl)amino)-2-((6-methoxy-2-methyl-1,2,3,4-tetrahydroisoquinolin-7-yl)amino)pyrimidine-5-carboxamide] yielded an IC50 of 651 nM.
Work on `COc1cc2c(cc1Nc1ncc(C(N)=O)c(Nc3c(C)noc3C)n1)CN(C)CC2` [Example 7-83, 4-((3,5-dimethylisoxazol-4-yl)amino)-2-((6-methoxy-2-methyl-1,2,3,4-tetrahydroisoquinolin-7-yl)amino)pyrimidine-5-carboxamide] yielded an IC50 of 4.84 nM.
For `COc1cc2c(cc1Nc1ncc(C(N)=O)c(Nc3c4c(nn3C)CCC4)n1)CN(C)CC2` [Example 7-84, 2-((6-methoxy-2-methyl-1,2,3,4-tetrahydroisoquinolin-7-yl)amino)-4-((2-methyl-2,4,5,6-tetrahydrocyclopenta[c]pyrazol-3-yl)amino)pyrimidine-5-carboxamide], the IC50 was 5.66 nM.
With `COc1cc2c(cc1Nc1ncc(C(N)=O)c(Nc3ccccc3-c3cc(C)no3)n1)CN(C)CC2` [Example 7-85, 2-((6-methoxy-2-methyl-1,2,3,4-tetrahydroisoquinolin-7-yl)amino)-4-((2-(3-methylisoxazol-5-yl)phenyl)amino)pyrimidine-5-carboxamide] the IC50 was 9.29 nM.
`COc1cc2c(cc1Nc1ncc(C(N)=O)c(Nc3cn(C)nc3C(F)(F)F)n1)CN(C)CC2` [Example 7-86, 2-((6-methoxy-2-methyl-1,2,3,4-tetrahydroisoquinolin-7-yl)amino)-4-((1-methyl-3-(trifluoromethyl)-1H-pyrazol-4-yl)amino)pyrimidine-5-carboxamide] gave an IC50 of 11.8 nM.
In the case of `CCn1cc(Cl)c(Nc2nc(Nc3cc4c(cc3OC)CCN(C)C4)ncc2C(N)=O)n1` [Example 7-87, 4-((4-chloro-1-ethyl-1H-pyrazol-3-yl)amino)-2-((6-methoxy-2-methyl-1,2,3,4-tetrahydroisoquinolin-7-yl)amino)pyrimidine-5-carboxamide], the IC50 is reported as 4.78 nM.
`COc1cc2c(cc1Nc1ncc(C(N)=O)c(Nc3ccnn3C)n1)CN(C)CC2` [Example 7-88, 2-((6-methoxy-2-methyl-1,2,3,4-tetrahydroisoquinolin-7-yl)amino)-4-((1-methyl-1H-pyrazol-5-yl)amino)pyrimidine-5-carboxamide] gave an IC50 of 9.16 nM.
`COc1cc2c(cc1Nc1ncc(C(N)=O)c(Nc3cc(C)nn3CCO)n1)CN(C)CC2` [Example 7-90, 4-((1-(2-hydroxyethyl)-3-methyl-1H-pyrazol-5-yl)amino)-2-((6-methoxy-2-methyl-1,2,3,4-tetrahydroisoquinolin-7-yl)amino)pyrimidine-5-carboxamide] showed an IC50 of 1.44 nM.
Work on `COc1cc2c(cc1Nc1ncc(C(N)=O)c(Nc3cc(C)nn3Cc3ccccc3)n1)CN(C)CC2` [Example 7-91, 4-((1-benzyl-3-methyl-1H-pyrazol-5-yl)amino)-2-((6-methoxy-2-methyl-1,2,3,4-tetrahydroisoquinolin-7-yl)amino)pyrimidine-5-carboxamide] yielded an IC50 of 38.6 nM.
Work on `COc1cc2c(cc1Nc1ncc(C(N)=O)c(Nc3cc(C)nn3-c3ccccc3)n1)CN(C)CC2` [Example 7-92, 2-((6-methoxy-2-methyl-1,2,3,4-tetrahydroisoquinolin-7-yl)amino)-4-((3-methyl-1-phenyl-1H-pyrazol-5-yl)amino)pyrimidine-5-carboxamide] yielded an IC50 of 10.9 nM.
`CCn1ncc(C)c1Nc1nc(Nc2cc3c(cc2OC)CCN(C)C3)ncc1C(N)=O` [Example 7-93, 4-((1-ethyl-4-methyl-1H-pyrazol-5-yl)amino)-2-((6-methoxy-2-methyl-1,2,3,4-tetrahydroisoquinolin-7-yl)amino)pyrimidine-5-carboxamide] was tested, and the IC50 was 18.5 nM.
`COC(=O)c1ccccc1Nc1nc(Nc2cc3c(cc2OC)CCN(C)C3)ncc1C(N)=O` [Example 7-94, methyl 2-({5-carbamoyl-2-[(6-methoxy-2-methyl-1,2,3,4-tetrahydroisoquinolin-7-yl)amino]pyrimidin-4-yl}amino)benzoate] was tested, and the IC50 was 0.88 nM.
For `COc1ccc(C(N)=O)cc1Nc1ncc(C(N)=O)c(Nc2ccccc2Br)n1` [Example 7-95, 4-[(2-bromophenyl)amino]-2-[(5-carbamoyl-2-methoxyphenyl)amino]pyrimidine-5-carboxamide], the IC50 was 548 nM.
With `NC(=O)c1cnc(Nc2cccc3c2OCC3)nc1Nc1ccccc1Br` [Example 7-96, 4-[(2-bromophenyl)amino]-2-[(2,3-dihydro-1-benzofuran-7-yl)amino]pyrimidine-5-carboxamide] the IC50 was 713 nM.
Compound `COc1cc2c(cc1Nc1ncc(C(N)=O)c(Nc3ccccc3C(O)(C(F)(F)F)C(F)(F)F)n1)CN(C)CC2` [Example 7-97, 4-{[2-(1,1,1,3,3,3-hexafluoro-2-hydroxypropan-2-yl)phenyl]amino}-2-[(6-methoxy-2-methyl-1,2,3,4-tetrahydroisoquinolin-7-yl)amino]pyrimidine-5-carboxamide] has an IC50 of 0.23 nM.
`COc1cc2c(cc1Nc1ncc(C(N)=O)c(Nc3ccccc3CC(F)(F)F)n1)CN(C)CC2` [Example 7-98, 2-[(6-methoxy-2-methyl-1,2,3,4-tetrahydroisoquinolin-7-yl)amino]-4-{[2-(2,2,2-trifluoroethyl)phenyl]amino}pyri-midine-5-carboxamide] showed an IC50 of 0.07 nM.
`COc1cc2c(cc1Nc1ncc(C(N)=O)c(Nc3ccccc3CN3CCOCC3)n1)CN(C)CC2` [Example 7-99, 2-[(6-methoxy-2-methyl-1,2,3,4-tetrahydroisoquinolin-7-yl)amino]-4-({2-[(morpholin-4-yl)methyl]phenyl}amino)pyrimi-dine-5-carboxamide] gave an IC50 of 1.44 nM.
Compound `N#CC1(c2ccc(Nc3ncc(C(N)=O)c(Nc4ccccc4Br)n3)cc2)CC1` [Example 7-100, 4-[(2-bromophenyl)amino]-2-{[4-(1-cyanocyclopropyl)phenyl]amino} pyrimidine-5-carboxamide] has an IC50 of 30 nM.
In the case of `C#Cc1ccccc1Nc1nc(Nc2cc3c(cc2OC)CCN(C)C3)ncc1C(N)=O` [Example 7-102, 4-[(2-ethynylphenyl)amino]-2-[(6-methoxy-2-methyl-1,2,3,4-tetrahydroisoquinolin-7-yl)amino]pyrimidine-5-carboxamide], the IC50 is reported as 0.61 nM.
In the case of `NC(=O)c1cnc(Nc2ccc3c(c2)COC3=O)nc1Nc1ccccc1Br` [Example 7-103, 4-[(2-bromopehnyl)amino]-2-[(1-oxo-1,3-dihydro-2-benzofuran-5-yl)amino]pyrimidine-5-carboxamide], the IC50 is reported as 188 nM.
Compound `NC(=O)c1cnc(Nc2ccccc2)nc1Nc1ccccc1Br` [Example 7-105, 4-[(2-bromophenyl)amino]-2-(phenylamino)pyrimidine-5-carboxamide] has an IC50 of 345 nM.
Work on `NC(=O)c1cnc(Nc2ccc3c(c2)C(=O)OCC3)nc1Nc1ccccc1Br` [Example 7-106, 4-[(2-bromophenyl)amino]-2-[(1-oxo-3,4-dihydro-1H-2-benzopyran-7-yl)amino]pyrimidine-5-carboxamide] yielded an IC50 of 63.8 nM.
